Measurements: PubChem BioAssay AID330 (DTP/NCI, 2004)
Several values for one entry are separate records, joined by “and”; a condition that tells them apart may be missing. Equal entries are not always repeated. Inconclusive results and toxic doses are left out. How the source made its calls: active means survival T/C of 150% or more; inactive means T/C below 125% in these data.

System: P388 leukemia ip, CD2F1 mice, survival T/C
Assay: NCI In Vivo Anticancer Drug Screen. Data for tumor model P388 Leukemia (intraperitoneal) in CD2F1 (CDF1) mice
Settings: endpoint: median survival time, higher = longer survival
Procedure, shortened: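 Mice carrying the transplanted tumor received test compound or vehicle. Survival was recorded in each group, and the value is the treated-group measurement divided by that of the vehicle-treated control group.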

[1] = dose: 100.0 mg/kg/injection, schedule: Q01DX009 (ip), vehicle: saline with Tween-80
[2] = dose: 50.0 mg/kg/injection, schedule: Q04DX003 (ip), vehicle: saline with Tween-80
[3] = dose: 100.0 mg/kg/injection, schedule: Q04DX003 (ip), vehicle: saline with Tween-80
[4] = dose: 50.0 mg/kg/injection, schedule: Q01DX005 (ip), vehicle: Klucel (hydroxypropylcellulose) (HPC)
[5] = dose: 100.0 mg/kg/injection, schedule: Q01DX005 (ip), vehicle: Klucel (hydroxypropylcellulose) (HPC)
[6] = dose: 200.0 mg/kg/injection, schedule: Q01DX009 (ip), vehicle: saline with Tween-80
[7] = dose: 200.0 mg/kg/injection, schedule: Q04DX003 (ip), vehicle: saline with Tween-80
[8] = dose: 50.0 mg/kg/injection, schedule: Q01DX009 (ip), vehicle: saline with Tween-80

Measured: T/C

c1ccc([P+](CCN2Cc3ccccc3C2)(c2ccccc2)c2ccccc2)cc1
inactive: dose: 0.78 mg/kg/injection, schedule: Q01DX009 (ip), vehicle: other 119 % of control | dose: 0.78 mg/kg/injection, schedule: Q01DX009 (ip), vehicle: saline 101 % of control | dose: 1.56 mg/kg/injection, schedule: Q01DX009 (ip), vehicle: other 110 % of control | dose: 1.56 mg/kg/injection, schedule: Q01DX009 (ip), vehicle: saline 101 % of control | dose: 3.12 mg/kg/injection, schedule: Q01DX009 (ip), vehicle: saline 107 % of control | dose: 3.13 mg/kg/injection, schedule: Q01DX009 (ip), vehicle: other 114 % of control | dose: 3.13 mg/kg/injection, schedule: Q01DX009 (ip), vehicle: saline 105 % of control | dose: 6.25 mg/kg/injection, schedule: Q01DX009 (ip), vehicle: other 118 % of control | dose: 6.25 mg/kg/injection, schedule: Q01DX009 (ip), vehicle: saline 109 % of control and 119 % of control | dose: 12.5 mg/kg/injection, schedule: Q01DX009 (ip), vehicle: other 108 % of control | dose: 12.5 mg/kg/injection, schedule: Q01DX009 (ip), vehicle: saline 120 % of control and 122 % of control | dose: 25.0 mg/kg/injection, schedule: Q01DX009 (ip), vehicle: other 88 % of control

O=C1c2ccccc2C(=O)c2sccc21
inactive: dose: 1.56 mg/kg/injection, schedule: Q01DX009 (ip), vehicle: saline with Tween-80 98 % of control | dose: 3.13 mg/kg/injection, schedule: Q01DX009 (ip), vehicle: saline with Tween-80 105 % of control | dose: 6.25 mg/kg/injection, schedule: Q01DX009 (ip), vehicle: saline with Tween-80 103 % of control | dose: 12.5 mg/kg/injection, schedule: Q01DX009 (ip), vehicle: saline with Tween-80 99 % of control | dose: 25.0 mg/kg/injection, schedule: Q01DX009 (ip), vehicle: saline with Tween-80 97 % of control | [1] 88 % of control

CN([NH-])C(=S)[S-].CN([NH-])C(=S)[S-].[Ni]
inactive: dose: 50.0 mg/kg/injection, schedule: Q04DX003 (ip), vehicle: Klucel (hydroxypropylcellulose) (HPC) 100 % of control | [2] 100 % of control | dose: 100.0 mg/kg/injection, schedule: Q01DX001 (ip), vehicle: saline with Tween-80 120 % of control | [3] 100 % of control | dose: 200.0 mg/kg/injection, schedule: Q01DX001 (ip), vehicle: saline with Tween-80 101 % of control | dose: 200.0 mg/kg/injection, schedule: Q04DX003 (ip), vehicle: Klucel (hydroxypropylcellulose) (HPC) 117 % of control | dose: 400.0 mg/kg/injection, schedule: Q01DX001 (ip), vehicle: saline with Tween-80 123 % of control

CC1(C)COP(Oc2ccccc2)OC1
inactive: dose: 25.0 mg/kg/injection, schedule: Q01DX009 (ip), vehicle: saline + Tween-80 + alcohol 102 % of control | dose: 50.0 mg/kg/injection, schedule: Q01DX009 (ip), vehicle: saline + Tween-80 + alcohol 103 % of control | dose: 100.0 mg/kg/injection, schedule: Q01DX009 (ip), vehicle: saline + Tween-80 + alcohol 100 % of control | dose: 200.0 mg/kg/injection, schedule: Q01DX009 (ip), vehicle: saline + Tween-80 + alcohol 96 % of control

O=c1[nH]cnc2c1ncn2C1SC(CO)C(O)C1O (stereo unspecified)
inactive: dose: 25.0 mg/kg/injection, schedule: Q01DX005 (ip), vehicle: Klucel (hydroxypropylcellulose) (HPC) 100 % of control | [4] 108 % of control | [5] 101 % of control | dose: 200.0 mg/kg/injection, schedule: Q01DX005 (ip), vehicle: Klucel (hydroxypropylcellulose) (HPC) 101 % of control | dose: 400.0 mg/kg/injection, schedule: Q01DX005 (ip), vehicle: Klucel (hydroxypropylcellulose) (HPC) 92 % of control

Cc1ccc(S(=O)(=O)Nc2cccc3c(NS(=O)(=O)c4ccc(C)cc4)cccc23)cc1
inactive: [1] 100 % of control | [3] 100 % of control | [6] 95 % of control | [7] 90 % of control | dose: 400.0 mg/kg/injection, schedule: Q04DX003 (ip), vehicle: saline with Tween-80 100 % of control

O=[N+]([O-])c1ccc(S(=O)(=O)Nc2c([N+](=O)[O-])cc([N+](=O)[O-])c3ccccc23)cc1
inactive: [2] 92 % of control | [3] 95 % of control | [7] 105 % of control

CC1OCN2C(C)CCCC12 (stereo unspecified)
inactive: dose: 50.0 mg/kg/injection, schedule: Q01DX005 (ip), vehicle: saline 108 % of control | dose: 100.0 mg/kg/injection, schedule: Q01DX005 (ip), vehicle: saline 106 % of control

CN(C)CC(OCCc1ccccc1)C(Cl)(Cl)Cl (stereo unspecified)
inactive: dose: 50.0 mg/kg/injection, schedule: Q01DX009 (ip), vehicle: Klucel (hydroxypropylcellulose) (HPC) 107 % of control | dose: 100.0 mg/kg/injection, schedule: Q01DX009 (ip), vehicle: Klucel (hydroxypropylcellulose) (HPC) 109 % of control | dose: 200.0 mg/kg/injection, schedule: Q01DX009 (ip), vehicle: Klucel (hydroxypropylcellulose) (HPC) 109 % of control

CC(C)(C)SCC(NC(=O)OCC1c2ccccc2-c2ccccc21)C(=O)O (stereo unspecified)
inactive: [4] 100 % of control | [5] 100 % of control

CCc1[nH]c2ccccc2c1C(=O)c1ccncc1
inactive: dose: 100.0 mg/kg/injection, schedule: Q04DX003 (ip), vehicle: suspension in saline 103 % of control | dose: 200.0 mg/kg/injection, schedule: Q04DX003 (ip), vehicle: suspension in saline 101 % of control | dose: 400.0 mg/kg/injection, schedule: Q04DX003 (ip), vehicle: suspension in saline 108 % of control

CCCCCCCCCCCCC1=C(OC)C(NC(=O)CCCCCCCCCCC)=CC(=O)C1=O
inactive: dose: 50.0 mg/kg/injection, schedule: Q01DX001 (ip), vehicle: Klucel (hydroxypropylcellulose) (HPC) 92 % of control | dose: 100.0 mg/kg/injection, schedule: Q01DX001 (ip), vehicle: Klucel (hydroxypropylcellulose) (HPC) 88 % of control | dose: 200.0 mg/kg/injection, schedule: Q01DX001 (ip), vehicle: Klucel (hydroxypropylcellulose) (HPC) 90 % of control

CO/C=C1\CC(=O)N(c2cccc([N+](=O)[O-])c2)C1=O
inactive: dose: 25.0 mg/kg/injection, schedule: Q04DX003 (ip), vehicle: saline 97 % of control | dose: 50.0 mg/kg/injection, schedule: Q04DX003 (ip), vehicle: saline 96 % of control | dose: 100.0 mg/kg/injection, schedule: Q04DX003 (ip), vehicle: saline 94 % of control and 96 % of control | dose: 200.0 mg/kg/injection, schedule: Q04DX003 (ip), vehicle: saline 90 % of control | dose: 400.0 mg/kg/injection, schedule: Q04DX003 (ip), vehicle: saline 97 % of control

CCCCN(CCCC)CCCOC(=O)c1ccc2oc3ccc(C(=O)OCCCN(CCCC)CCCC)cc3c2c1
inactive: [8] 96 % of control | [1] 103 % of control

CC(C)(C)N=C(CCN1CCN(c2ccccc2)CC1)Nc1ccccc1Cl
inactive: [8] 109 % of control | [1] 108 % of control | [6] 100 % of control

Sc1ccccc1N=Cc1cccs1
inactive: dose: 50.0 mg/kg/injection, schedule: Q01DX009 (ip), vehicle: saline 90 % of control | dose: 100.0 mg/kg/injection, schedule: Q01DX009 (ip), vehicle: saline 99 % of control | dose: 200.0 mg/kg/injection, schedule: Q01DX009 (ip), vehicle: saline 96 % of control

CCNC(=O)N(CC(=O)NC)c1ncc([N+](=O)[O-])s1
inactive: dose: 100.0 mg/kg/injection, schedule: Q04DX002 (ip), vehicle: Klucel (hydroxypropylcellulose) (HPC) 103 % of control | dose: 200.0 mg/kg/injection, schedule: Q04DX002 (ip), vehicle: Klucel (hydroxypropylcellulose) (HPC) 101 % of control | dose: 400.0 mg/kg/injection, schedule: Q04DX002 (ip), vehicle: Klucel (hydroxypropylcellulose) (HPC) 108 % of control
